Test results: patent US8952024B2, “Herbicidal pyrimidone derivatives” (E I du Pont de Nemours and Company, priority 2009, dated 2015)

Assays:
Format in all cases: in vivo
[1] = tested on: bermudagrass (Cynodon dactylon); assay: Test B pre-/postemergence plant response
How it was run: (§1)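 Pre-em in loam/sand; post-em at 1–4 leaf (2–18 cm) in peat mix. Solvent + surfactant formulation. Greenhouse 13–15 d; visual % control vs untreated, 0–100.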

[2] = tested on: morningglory (Ipomoea coccinea); assay: Test B pre-/postemergence plant response
How it was run: as §1

[3] = tested on: giant foxtail (Setaria faberii); assay: Test B pre-/postemergence plant response
How it was run: as §1

wild oat (Avena fatua) = assay: Test B pre-/postemergence plant response
How it was run: as §1

soybean (Glycine max) = assay: Test B pre-/postemergence plant response
How it was run: as §1

corn (Zea mays) = assay: Test B pre-/postemergence plant response
How it was run: as §1

[4] = tested on: blackgrass (Alopecurus myosuroides); assay: Test B pre-/postemergence plant response
How it was run: as §1

[5] = tested on: johnsongrass (Sorghum halepense); assay: Test B pre-/postemergence plant response
How it was run: as §1

[6] = tested on: cocklebur (Xanthium strumarium); assay: Test B pre-/postemergence plant response
How it was run: as §1

kochia (Kochia scoparia) = assay: Test B pre-/postemergence plant response
How it was run: as §1

[7] = tested on: chickweed (Stellaria media); assay: Test B postemergence plant response
How it was run: (§2)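 Plants at the 1- to 4-leaf stage (2 to 18 cm tall), grown in pots of peat moss/vermiculite medium with wetting agent and starter nutrients, received postemergence applications of test chemicals. After 13 to 15 days in a greenhouse, injury was rated visually against untreated controls on a 0 (no effect) to 100 (complete control) scale.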

[8] = tested on: windgrass (Apera spica-venti); assay: Test B postemergence plant response
How it was run: as §2

[9] = tested on: winter barley (Hordeum vulgare); assay: Test B postemergence plant response
How it was run: as §2

[10] = tested on: canarygrass (Phalaris minor); assay: Test B postemergence plant response
How it was run: as §2

[11] = 250 g ai/ha, Preemergence, 0 to 100 scale
[12] = Postemergence, 62 g ai/ha, scale 0 (no effect) to 100 (complete control), 13 to 15 days
[13] = Postemergence, 125 g ai/ha, visual rating after 13 to 15 days, scale 0 (no effect) to 100 (complete control)
[14] = Postemergence, 250 g ai/ha, scale 0 to 100 (0 no effect, 100 complete control)
[15] = Preemergence, 31 g ai/ha, scale 0 to 100 (0 no effect, 100 complete control)
[16] = Preemergence, 62 g ai/ha, scale 0 to 100 (0 no effect, 100 complete control)
[17] = Preemergence, 125 g ai/ha, scale 0 to 100, 0 no effect, 100 complete control
[18] = 31 g ai/ha, postemergence, scale 0 to 100, 0 is no effect, 100 is complete control

CCCCc1ncc(C(=O)C2=C(O)CCCC2=O)c(=O)n1-c1cccc(C)c1 [Compound 63]
Plant response rating, Bermudagrass [1, 11]: 98
Plant response rating, Bermudagrass [1, 12]: 85
Plant response rating, Bermudagrass [1, 13]: 85
Plant response rating, Bermudagrass [1, 14]: 95
Plant response rating, Bermudagrass [1, 15]: 75
Plant response rating, Bermudagrass [1, 16]: 98
Plant response rating, Bermudagrass [1, 17]: 98
Plant response rating, Morningglory [2, 12]: 70
Plant response rating, Morningglory [2, 13]: 75
Plant response rating, Morningglory [2, 14]: 75
Plant response rating, Morningglory [2, 15]: 0
Plant response rating, Morningglory [2, 16]: 0
Plant response rating, Morningglory [2, 17]: 0
Plant response rating, Foxtail, Giant [3, 18]: 60
Plant response rating, Foxtail, Giant [3, 11]: 10
Plant response rating, Foxtail, Giant [3, 12]: 65
Plant response rating, Foxtail, Giant [3, 13]: 65
Plant response rating, Foxtail, Giant [3, 14]: 80
Plant response rating, Foxtail, Giant [3, 15]: 0
Plant response rating, Foxtail, Giant [3, 16]: 0
Plant response rating, Foxtail, Giant [3, 17]: 0
Plant response rating, Oat, Wild (wild oat (Avena fatua); [18]): 0
Plant response rating, Oat, Wild (wild oat (Avena fatua); [12]): 0
Plant response rating, Oat, Wild (wild oat (Avena fatua); [13]): 5
Plant response rating, Oat, Wild (wild oat (Avena fatua); [14]): 20
Plant response rating, Oat, Wild (wild oat (Avena fatua); [15]): 0
Plant response rating, Oat, Wild (wild oat (Avena fatua); [16]): 0
Plant response rating, Oat, Wild (wild oat (Avena fatua); [17]): 0
Plant response rating, Soybean (soybean (Glycine max); [18]): 75
Plant response rating, Soybean (soybean (Glycine max); [12]): 75
Plant response rating, Soybean (soybean (Glycine max); [13]): 85
Plant response rating, Soybean (soybean (Glycine max); [14]): 85
Plant response rating, Soybean (soybean (Glycine max); [15]): 0
Plant response rating, Soybean (soybean (Glycine max); [16]): 0
Plant response rating, Soybean (soybean (Glycine max); [17]): 5
Plant response rating, Corn (corn (Zea mays); [11]): 0
Plant response rating, Corn (corn (Zea mays); [12]): 20
Plant response rating, Corn (corn (Zea mays); [13]): 25
Plant response rating, Corn (corn (Zea mays); [14]): 45
Plant response rating, Corn (corn (Zea mays); [15]): 0
Plant response rating, Corn (corn (Zea mays); [16]): 0
Plant response rating, Corn (corn (Zea mays); [17]): 0
Plant response rating, Blackgrass [4, 18]: 30
Plant response rating, Blackgrass [4, 11]: 40
Plant response rating, Blackgrass [4, 12]: 35
Plant response rating, Blackgrass [4, 13]: 35
Plant response rating, Blackgrass [4, 14]: 50
Plant response rating, Blackgrass [4, 15]: 0
Plant response rating, Blackgrass [4, 16]: 0
Plant response rating, Blackgrass [4, 17]: 5
Plant response rating, Johnsongrass [5, 11]: 60
Plant response rating, Johnsongrass [5, 12]: 10
Plant response rating, Johnsongrass [5, 13]: 10
Plant response rating, Johnsongrass [5, 14]: 15
Plant response rating, Johnsongrass [5, 15]: 0
Plant response rating, Johnsongrass [5, 16]: 0
Plant response rating, Johnsongrass [5, 17]: 55
Plant response rating, Cocklebur [6, 18]: 65
Plant response rating, Cocklebur [6, 11]: 10
Plant response rating, Cocklebur [6, 12]: 80
Plant response rating, Cocklebur [6, 13]: 90
Plant response rating, Cocklebur [6, 14]: 95
Plant response rating, Cocklebur [6, 15]: 0
Plant response rating, Cocklebur [6, 16]: 0
Plant response rating, Cocklebur [6, 17]: 0
Plant response rating, Kochia (kochia (Kochia scoparia); [18]): 10
Plant response rating, Kochia (kochia (Kochia scoparia); [11]): 100
Plant response rating, Kochia (kochia (Kochia scoparia); [12]): 25
Plant response rating, Kochia (kochia (Kochia scoparia); [13]): 25
Plant response rating, Kochia (kochia (Kochia scoparia); [14]): 65
Plant response rating, Kochia (kochia (Kochia scoparia); [15]): 0
Plant response rating, Kochia (kochia (Kochia scoparia); [16]): 100
Plant response rating, Kochia (kochia (Kochia scoparia); [17]): 100
Plant response rating, Chickweed [7, 18]: 60
Plant response rating, Chickweed [7, 12]: 65
Plant response rating, Chickweed [7, 13]: 80
Plant response rating, Chickweed [7, 14]: 95
Plant response rating, Windgrass [8, 18]: 10
Plant response rating, Windgrass [8, 12]: 30
Plant response rating, Windgrass [8, 13]: 40
Plant response rating, Windgrass [8, 14]: 60
Plant response rating, Barley [9, 18]: 0
Plant response rating, Barley [9, 12]: 0
Plant response rating, Barley [9, 13]: 0
Plant response rating, Barley [9, 14]: 0
Plant response rating, Canarygrass [10, 18]: 0
Plant response rating, Canarygrass [10, 12]: 0
Plant response rating, Canarygrass [10, 13]: 0
Plant response rating, Canarygrass [10, 14]: 0

O=C1CCCC(O)=C1C(=O)c1cnc(-c2cccc(Cl)c2)n(-c2ccc(Cl)cc2)c1=O [Compound 64]
Plant response rating, Bermudagrass [1, 18]: 95
Plant response rating, Bermudagrass [1, 11]: 98
Plant response rating, Bermudagrass [1, 12]: 95
Plant response rating, Bermudagrass [1, 13]: 98
Plant response rating, Bermudagrass [1, 14]: 98
Plant response rating, Bermudagrass [1, 15]: 50
Plant response rating, Bermudagrass [1, 16]: 85
Plant response rating, Bermudagrass [1, 17]: 98
Plant response rating, Morningglory [2, 18]: 80
Plant response rating, Morningglory [2, 12]: 80
Plant response rating, Morningglory [2, 13]: 85
Plant response rating, Morningglory [2, 14]: 90
Plant response rating, Morningglory [2, 15]: 0
Plant response rating, Morningglory [2, 16]: 0
Plant response rating, Morningglory [2, 17]: 0
Plant response rating, Foxtail, Giant [3, 18]: 90
Plant response rating, Foxtail, Giant [3, 11]: 65
Plant response rating, Foxtail, Giant [3, 12]: 95
Plant response rating, Foxtail, Giant [3, 13]: 98
Plant response rating, Foxtail, Giant [3, 14]: 100
Plant response rating, Foxtail, Giant [3, 15]: 20
Plant response rating, Foxtail, Giant [3, 16]: 25
Plant response rating, Foxtail, Giant [3, 17]: 35
Plant response rating, Oat, Wild (wild oat (Avena fatua); [18]): 60
Plant response rating, Oat, Wild (wild oat (Avena fatua); [12]): 90
Plant response rating, Oat, Wild (wild oat (Avena fatua); [13]): 95
Plant response rating, Oat, Wild (wild oat (Avena fatua); [14]): 98
Plant response rating, Oat, Wild (wild oat (Avena fatua); [15]): 0
Plant response rating, Oat, Wild (wild oat (Avena fatua); [16]): 0
Plant response rating, Oat, Wild (wild oat (Avena fatua); [17]): 0
Plant response rating, Soybean (soybean (Glycine max); [18]): 85
Plant response rating, Soybean (soybean (Glycine max); [12]): 98
Plant response rating, Soybean (soybean (Glycine max); [13]): 98
Plant response rating, Soybean (soybean (Glycine max); [14]): 98
Plant response rating, Corn (corn (Zea mays); [18]): 80
Plant response rating, Corn (corn (Zea mays); [11]): 0
Plant response rating, Corn (corn (Zea mays); [12]): 85
Plant response rating, Corn (corn (Zea mays); [13]): 85
Plant response rating, Corn (corn (Zea mays); [14]): 90
Plant response rating, Corn (corn (Zea mays); [15]): 0
Plant response rating, Corn (corn (Zea mays); [16]): 0
Plant response rating, Corn (corn (Zea mays); [17]): 0
Plant response rating, Blackgrass [4, 18]: 0
Plant response rating, Blackgrass [4, 11]: 0
Plant response rating, Blackgrass [4, 12]: 0
Plant response rating, Blackgrass [4, 13]: 5
Plant response rating, Blackgrass [4, 14]: 15
Plant response rating, Blackgrass [4, 15]: 0
Plant response rating, Blackgrass [4, 16]: 0
Plant response rating, Blackgrass [4, 17]: 0
Plant response rating, Johnsongrass [5, 18]: 90
Plant response rating, Johnsongrass [5, 11]: 75
Plant response rating, Johnsongrass [5, 12]: 98
Plant response rating, Johnsongrass [5, 13]: 100
Plant response rating, Johnsongrass [5, 14]: 100
Plant response rating, Johnsongrass [5, 15]: 0
Plant response rating, Johnsongrass [5, 16]: 0
Plant response rating, Johnsongrass [5, 17]: 55
Plant response rating, Cocklebur [6, 18]: 90
Plant response rating, Cocklebur [6, 11]: 70
Plant response rating, Cocklebur [6, 12]: 95
Plant response rating, Cocklebur [6, 13]: 95
Plant response rating, Cocklebur [6, 14]: 95
Plant response rating, Cocklebur [6, 15]: 0
Plant response rating, Cocklebur [6, 16]: 0
Plant response rating, Cocklebur [6, 17]: 10
Plant response rating, Kochia (kochia (Kochia scoparia); [18]): 50
Plant response rating, Kochia (kochia (Kochia scoparia); [11]): 95
Plant response rating, Kochia (kochia (Kochia scoparia); [12]): 55
Plant response rating, Kochia (kochia (Kochia scoparia); [13]): 80
Plant response rating, Kochia (kochia (Kochia scoparia); [14]): 80
Plant response rating, Kochia (kochia (Kochia scoparia); [15]): 0
Plant response rating, Kochia (kochia (Kochia scoparia); [16]): 0
Plant response rating, Kochia (kochia (Kochia scoparia); [17]): 45
Plant response rating, Chickweed [7, 18]: 98
Plant response rating, Chickweed [7, 12]: 98
Plant response rating, Chickweed [7, 13]: 98
Plant response rating, Chickweed [7, 14]: 100
Plant response rating, Windgrass [8, 18]: 70
Plant response rating, Windgrass [8, 12]: 90
Plant response rating, Windgrass [8, 13]: 95
Plant response rating, Windgrass [8, 14]: 100
Plant response rating, Barley [9, 18]: 15
Plant response rating, Barley [9, 14]: 35
Plant response rating, Canarygrass [10, 18]: 40
Plant response rating, Canarygrass [10, 12]: 40
Plant response rating, Canarygrass [10, 13]: 40
Plant response rating, Canarygrass [10, 14]: 60
